Values after ≈ are worked out from the molar mass of the structure shown. Active and inactive are the calls of the source. The calls are words filed in the database; no cut-off is given here.

For assay [1], the system named is P388. Description: In vivo antitumor activity against mouse P388 cells at 75 mg/kg. The class given is functional.
For assay [2], the system named is P388. Description: In vivo antitumor activity against mouse P388 cells at 5 to 200 mg/kg. The class given is functional, organism-based.
For assay [3], the system named is P388. Put plainly: Cytotoxicity against mouse P388 cells. The class given is functional. The note with it: read-out: ED50 (the source's name).
Assay [4] has as its system P388. Description: In vivo antitumor activity against mouse P388 cells at 1.25 to 10 mg/kg. The class given is functional, organism-based.
The test system of assay [5] is P388. Description: In vivo antitumor activity against mouse P388 cells at 10 mg/kg. The class given is functional.
Assay [6] deals with P388. Description: In vivo antitumor activity against mouse P388 cells at 20 mg/kg. It is filed as functional.

As usually defined, the T/C is the result in the treated group divided by that in the control group, in per cent. Regarding `O[C@H]1[C@H]2c3cc4c(cc3CN3CCC(=C[C@@H]1O)[C@H]23)OCO4` [LYCORINE], the T/C in the assay with P388 [1] stood at 135%.

As to `CC(=O)O[C@@H]1CC=C2CCN3Cc4cc5c(cc4[C@H]1[C@@H]23)OCO5` [ACETYLCARANINE], the result in the assay with P388 [2] was inactive. The EC50 in the assay with P388 [3] amounted to 0.23 µg/mL (≈ 0.734 µM). Turning to `COc1c2c(cc3c1OCO3)[C@]13C=C[C@H](OC)C[C@H]1N(C2)C[C@@H]3O` [AMBELLINE], in the assay with P388 [4], the outcome was inactive. The EC50 with P388 [3] was 1.6 µg/mL (≈ 4.83 µM). For the compound `[Cl-].c1cc2c3c(c1)c1cc4c(cc1c[n+]3CC2)OCO4` [ANHYDROLYCORINIUM CHLORIDE], the T/C in the assay on P388 [5] came out at 164%; in the assay with P388 [6] it was 169%.

Values taken from ChEMBL document CHEMBL1151627, “Antineoplastic agents, 99. Amaryllis belladonna” (1984).
